Some test systems named below: ACHN; CCRF-CEM; HCC 2998; HCT-15; HOP-92; IGROV-1; K562; NCI-H226; RPMI-8226; RXF 393; SF-295; SN12C; SNB-78; SW-620; UACC-257; HCT-116; SNB-75.
Test in all cases: NCI tumour cell line growth inhibition, 48 h

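The compound was tested at five concentrations on cells cultured in 96-well plates, with a 48-hour exposure period. Here, GI50 denotes the concentration required for 50% inhibition of growth.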 Active and inactive are the calls of the source. Cut-off read from the data, not from the text of the source: active = GI50 up to about 1.1 µM and inactive = higher. Where only a bound is given, the exact number is not on record here.

Consider `OCCSCC/C(=N\N=C(/CCSCCO)c1ccccc1)c1ccccc1`, for which the GI50 in the assay with ACHN was 74.5 µM (inactive); with CCRF-CEM it was 44.9 µM (inactive); with HCC 2998, > 100 µM (inactive); with HCT-15, > 100 µM; in the assay on HOP-92, 31.1 µM (inactive); with IGROV-1 it was > 100 µM (inactive). The GI50 in the assay on K562 was 29.9 µM (inactive); in the assay with NCI-H226 it was > 100 µM (inactive); in the assay with RPMI-8226, 39.4 µM (inactive); in the assay with RXF 393, 36.2 µM (inactive); in the assay with SF-295, 34.4 µM (inactive); with SN12C, > 100 µM (inactive). Moreover, the GI50 in the assay on SNB-78, in the assay with SW-620 and in the assay on UACC-257 was > 100 µM (inactive) throughout.

Consider `C/C(=N/NC(N)=S)C(CN(C)C)C(C1=C(O)c2ccccc2OC1)c1ccccc1` (stereo not given), for which the GI50 in the assay on ACHN was > 100 µM (inactive); in the assay with CCRF-CEM, > 100 µM (inactive); with HCC 2998, > 100 µM (inactive); with HCT-116 it was > 100 µM (inactive); in the assay on HCT-15, > 100 µM; with IGROV-1, > 100 µM (inactive). Besides, the GI50 in the assay with K562, in the assay with NCI-H226, in the assay on RPMI-8226, with RXF 393, with SF-295 and with SN12C was > 100 µM (inactive) in each case. In addition, the GI50 with SNB-75, in the assay on SNB-78, with SW-620 and with UACC-257 was > 100 µM (inactive) in each case.

As to `O=C(O)C1CCC(=O)N1C(=O)C(Cl)c1ccccc1` (stereo not given), the GI50 was > 100 µM (inactive) in the assay on ACHN; > 100 µM (inactive) in the assay with CCRF-CEM; > 100 µM (inactive) with HCC 2998; > 100 µM (inactive) in the assay with HCT-116; > 100 µM in the assay on HCT-15; > 100 µM (inactive) with HOP-92. The GI50 in the assay on IGROV-1, in the assay on K562, with NCI-H226, with RPMI-8226, with SF-295 and in the assay with SN12C was > 100 µM (inactive) in each case. The GI50 in the assay on SNB-75, in the assay with SNB-78, with SW-620 and in the assay on UACC-257 was > 100 µM (inactive) each time.

Take `COc1ccc(C(=O)Nc2ccccc2C#N)cc1`: the GI50 with ACHN was > 100 µM (inactive); in the assay with CCRF-CEM, > 100 µM (inactive); in the assay with HCT-116 it was > 100 µM (inactive); in the assay on HCT-15, > 100 µM; in the assay with HOP-92, > 100 µM (inactive); with IGROV-1, > 100 µM (inactive). The GI50 with K562 was > 100 µM (inactive); with RPMI-8226 it was > 100 µM (inactive); with RXF 393 it was > 100 µM (inactive); with SF-295 it was > 100 µM (inactive); with SN12C, > 100 µM (inactive); in the assay on SNB-75, 51.1 µM (inactive). For the same molecule, the GI50 in the assay with SNB-78, in the assay on SW-620 and with UACC-257 was > 100 µM (inactive) in each case.

Turning to `CN(C)CCC[N+]1=Nc2cccc3cccc(c23)N1`, the GI50 with ACHN was 50.7 µM (inactive); in the assay with CCRF-CEM, 29.9 µM (inactive); in the assay on HCC 2998, 24.2 µM (inactive); with HCT-116, 44.6 µM (inactive); in the assay on HCT-15, 39.3 µM; with HOP-92, 66.7 µM (inactive). For the same molecule, the GI50 in the assay with IGROV-1 was 31.4 µM (inactive); with K562, 31.8 µM (inactive); in the assay on NCI-H226 it was > 100 µM (inactive); in the assay on RPMI-8226, 22.8 µM (inactive); in the assay on SF-295 it was > 100 µM (inactive); in the assay with SN12C, 85.1 µM (inactive). Further, the GI50 is > 100 µM (inactive) in the assay with SNB-75, > 100 µM (inactive) with SNB-78, 10.4 µM (inactive) in the assay on SW-620 and 48.5 µM (inactive) with UACC-257.

As to `COc1ccc(N2C(=O)C3c4[nH]c5ccc(OC)cc5c4C4CCC(C(C)(C)C)CC4C3C2=O)cc1` (stereo not given), the GI50 is 28.5 µM (inactive) in the assay with ACHN; 58.6 µM (inactive) in the assay on CCRF-CEM; 45.3 µM (inactive) in the assay on HCC 2998; 10.5 µM (inactive) with HCT-116; > 100 µM in the assay with HCT-15; 10.7 µM (inactive) in the assay on HOP-92. The GI50 in the assay with IGROV-1 is 51.2 µM (inactive); in the assay on K562, 23.1 µM (inactive); in the assay on NCI-H226 it was 30.5 µM (inactive); in the assay with RPMI-8226, 57.1 µM (inactive); with RXF 393 it was 16.1 µM (inactive); in the assay with SF-295 it was 9.51 µM (inactive). Further, the GI50 with SN12C is 38.2 µM (inactive); in the assay with SNB-75 it was 12.3 µM (inactive); in the assay with SNB-78, 3.86 µM (inactive); in the assay with SW-620, 93.5 µM (inactive); in the assay on UACC-257 it was 55.2 µM (inactive).

For `C=CCN1C(=O)C(=O)N(CC=C)C(=O)C1=O`, the GI50 with CCRF-CEM was > 100 µM (inactive); in the assay with HCC 2998, > 100 µM (inactive); with HCT-116, > 100 µM (inactive); in the assay on HCT-15 it was > 100 µM; in the assay on HOP-92 it was > 100 µM (inactive); in the assay on IGROV-1, > 100 µM (inactive). Moreover, the GI50 in the assay with K562, in the assay on NCI-H226, in the assay on RPMI-8226, in the assay with RXF 393, in the assay with SF-295 and in the assay with SN12C was > 100 µM (inactive) in each case. Moreover, the GI50 in the assay with SNB-75, in the assay on SNB-78, with SW-620 and with UACC-257 was > 100 µM (inactive) throughout.

On to `N=c1c2ccccc2sc2nc3ccccc3n12`, for which the GI50 in the assay with ACHN, in the assay on CCRF-CEM, in the assay with HCC 2998, in the assay on HOP-92, with IGROV-1 and in the assay with K562 was > 100 µM (inactive) each time. In addition, the GI50 in the assay with NCI-H226 is 57.9 µM (inactive); with RXF 393, > 100 µM (inactive); in the assay on SF-295, > 100 µM (inactive); with SN12C, > 100 µM (inactive); in the assay on SNB-78, > 100 µM (inactive); in the assay with SW-620, > 100 µM (inactive). Also, the GI50 in the assay on UACC-257 is > 100 µM (inactive).

Turning to `CN(CCc1ccccn1)c1nc(=[N+](C)C)ss1`, the GI50 is > 100 µM (inactive) with ACHN; 81.3 µM (inactive) with CCRF-CEM; > 100 µM (inactive) with HCC 2998; > 100 µM with HCT-15; > 100 µM (inactive) in the assay with HOP-92; > 100 µM (inactive) in the assay with IGROV-1. Besides, the GI50 with K562 is > 100 µM (inactive); with RPMI-8226, > 100 µM (inactive); in the assay with RXF 393, > 100 µM (inactive); in the assay with SF-295, 56.1 µM (inactive); in the assay with SN12C it was > 100 µM (inactive); with SNB-75 it was > 100 µM (inactive). The GI50 with SNB-78, in the assay on SW-620 and in the assay on UACC-257 was > 100 µM (inactive) each time.

On to `CC/N=C(/C#N)NCC`, for which the GI50 is > 100 µM (inactive) with ACHN; 75.2 µM (inactive) in the assay on CCRF-CEM; > 100 µM (inactive) in the assay with HCC 2998; > 100 µM (inactive) in the assay with HCT-116; 46.2 µM in the assay with HCT-15; > 100 µM (inactive) with HOP-92. The GI50 with IGROV-1 is > 100 µM (inactive); in the assay on K562 it was > 100 µM (inactive); in the assay with NCI-H226, > 100 µM (inactive); with RPMI-8226 it was 30.4 µM (inactive); with SF-295, > 100 µM (inactive); with SN12C, > 100 µM (inactive). Also, the GI50 with SNB-75 is > 100 µM (inactive); in the assay on SNB-78, > 100 µM (inactive); with SW-620, 18.7 µM (inactive); in the assay with UACC-257, 55.3 µM (inactive).

Source of the values: ChEMBL document CHEMBL1201862, “PubChem BioAssay data set” (2004).
